In PubChem BioAssay AID1259407 (Chemical Carcinogenesis Research Information System (CCRIS), 2018):
Active and inactive are the calls of the source. How the calls were made is not given here.

Tested on: CCRIS mutagenicity, Ames/micronucleus/aberration tests
Test: CCRIS mutagenicity studies
[1] = Test System: AMES SALMONELLA TYPHIMURIUM, Strain/Indicator: TA98, Metabolic Activation: NONE, Method: PREINCUBATION
[2] = Test System: AMES SALMONELLA TYPHIMURIUM, Strain/Indicator: TA100, Metabolic Activation: NONE, Method: PREINCUBATION
[3] = Test System: AMES SALMONELLA TYPHIMURIUM, Strain/Indicator: TA1535, Metabolic Activation: NONE, Method: PREINCUBATION

Measured: mutagenic call

O=[N+]([O-])c1cccc2oc3ccccc3c12
active: Test System: AMES SALMONELLA TYPHIMURIUM, Strain/Indicator: TA98(NR), Metabolic Activation: RAT, LIVER, S-9, 3-METHYLCHOLANTHRENE (10%), Method: PREINCUBATION active; positive
inactive: Test System: AMES SALMONELLA TYPHIMURIUM, Strain/Indicator: TA98(1,8-DNP6), Metabolic Activation: NONE, Method: PREINCUBATION inactive; negative | Test System: AMES SALMONELLA TYPHIMURIUM, Strain/Indicator: TA98(1,8-DNP6), Metabolic Activation: NONE, Method: SUSPENSION inactive; negative | Test System: AMES SALMONELLA TYPHIMURIUM, Strain/Indicator: TA98(1,8-DNP6), Metabolic Activation: RAT, LIVER, S-9, PCB (5%), Method: PREINCUBATION inactive; negative | Test System: AMES SALMONELLA TYPHIMURIUM, Strain/Indicator: TA98(NR), Metabolic Activation: NONE, Method: PREINCUBATION inactive; negative | Test System: AMES SALMONELLA TYPHIMURIUM, Strain/Indicator: TA98(NR), Metabolic Activation: NONE, Method: SUSPENSION inactive; negative | Test System: AMES SALMONELLA TYPHIMURIUM, Strain/Indicator: TA98(NR), Metabolic Activation: RAT, LIVER, S-9 (10%), Method: PREINCUBATION inactive; negative | Test System: AMES SALMONELLA TYPHIMURIUM, Strain/Indicator: TA98(NR), Metabolic Activation: RAT, LIVER, S-9, BETA-NAPHTHOFLAVONE (10%), Method: PREINCUBATION inactive; negative | Test System: AMES SALMONELLA TYPHIMURIUM, Strain/Indicator: TA98(NR), Metabolic Activation: RAT, LIVER, S-9, PCB (5%), Method: PREINCUBATION inactive; negative | Test System: AMES SALMONELLA TYPHIMURIUM, Strain/Indicator: TA98(NR), Metabolic Activation: RAT, LIVER, S-9, PCB (10%), Method: PREINCUBATION inactive; negative | Test System: AMES SALMONELLA TYPHIMURIUM, Strain/Indicator: TA98(NR), Metabolic Activation: RAT, LIVER, S-9, PHENOBARBITAL (10%), Method: PREINCUBATION inactive; negative | [1] inactive; negative | Test System: AMES SALMONELLA TYPHIMURIUM, Strain/Indicator: TA98, Metabolic Activation: NONE, Method: SUSPENSION inactive; negative | Test System: AMES SALMONELLA TYPHIMURIUM, Strain/Indicator: TA98, Metabolic Activation: RAT, LIVER, S-9, PCB (5%), Method: PREINCUBATION inactive; negative | Test System: AMES SALMONELLA TYPHIMURIUM, Strain/Indicator: TA98, Metabolic Activation: RAT, LIVER, S-9, PCB, Method: SUSPENSION inactive; negative | [2] inactive; negative | Test System: AMES SALMONELLA TYPHIMURIUM, Strain/Indicator: TA100, Metabolic Activation: NONE, Method: SUSPENSION inactive; negative | Test System: AMES SALMONELLA TYPHIMURIUM, Strain/Indicator: TA100, Metabolic Activation: RAT, LIVER, S-9, PCB (5%), Method: PREINCUBATION inactive; negative | Test System: AMES SALMONELLA TYPHIMURIUM, Strain/Indicator: TA100, Metabolic Activation: RAT, LIVER, S-9, PCB, Method: SUSPENSION inactive; negative

ClC(Cl)(Cl)CC1CO1 (stereo not drawn)
inactive: Test System: AMES SALMONELLA TYPHIMURIUM, Strain/Indicator: TA100, Metabolic Activation: HAMSTER, LIVER, S-9, AROCLOR 1254 (10%), Method: PREINCUBATION inactive; negative | Test System: AMES SALMONELLA TYPHIMURIUM, Strain/Indicator: TA100, Metabolic Activation: RAT, LIVER, S-9, AROCLOR 1254 (10%), Method: PREINCUBATION inactive; negative | Test System: AMES SALMONELLA TYPHIMURIUM, Strain/Indicator: TA1535, Metabolic Activation: HAMSTER, LIVER, S-9, AROCLOR 1254 (10%), Method: PREINCUBATION inactive; negative | [3] inactive; negative | Test System: AMES SALMONELLA TYPHIMURIUM, Strain/Indicator: TA1535, Metabolic Activation: RAT, LIVER, S-9, AROCLOR 1254 (10%), Method: PREINCUBATION inactive; negative
active: [2] active; positive

COc1cc(O)c2c(c1)C1=C[C@H](O)[C@@H](O)C[C@]1(C)OC2=O
inactive: End Point: Ames Salmonella typhimurium, Strain/Indicator: TA97, Metabolic Activation: None, Method: Standard plate inactive; negative. nitrosation did not increase mutagenicity | End Point: Ames Salmonella typhimurium, Strain/Indicator: TA97, Metabolic Activation: Rat, Liver, S-9, Aroclor 1254 (10%), Method: Standard plate inactive; negative. nitrosation did not increase mutagenicity | End Point: Ames Salmonella typhimurium, Strain/Indicator: TA102, Metabolic Activation: None, Method: Standard plate inactive; negative. nitrosation did not increase mutagenicity | End Point: Ames Salmonella typhimurium, Strain/Indicator: TA102, Metabolic Activation: Rat, Liver, S-9, Aroclor 1254 (10%), Method: Standard plate inactive; negative. nitrosation did not increase mutagenicity | End Point: Ames Salmonella typhimurium, Strain/Indicator: TA104, Metabolic Activation: None, Method: Standard plate inactive; negative. nitrosation did not increase mutagenicity | End Point: Ames Salmonella typhimurium, Strain/Indicator: TA104, Metabolic Activation: Rat, Liver, S-9, Aroclor 1254 (10%), Method: Standard plate inactive; negative. nitrosation did not increase mutagenicity | Test System: AMES SALMONELLA TYPHIMURIUM, Strain/Indicator: TA98, Metabolic Activation: NONE, Method: STANDARD PLATE inactive; negative | Test System: AMES SALMONELLA TYPHIMURIUM, Strain/Indicator: TA98, Metabolic Activation: RAT LIVER S-9, AROCLOR 1254, Method: STANDARD PLATE inactive; negative | Test System: AMES SALMONELLA TYPHIMURIUM, Strain/Indicator: TA100, Metabolic Activation: NONE, Method: STANDARD PLATE inactive; negative | Test System: AMES SALMONELLA TYPHIMURIUM, Strain/Indicator: TA100, Metabolic Activation: RAT LIVER S-9, AROCLOR 1254, Method: STANDARD PLATE inactive; negative

CC#N
active: End Point: IN VITRO CHROMOSOMAL ABERRATIONS, Test System: CHINESE HAMSTER OVARY CELLS, Metabolic Activation: RAT, LIVER, S-9, AROCLOR 1254 active; positive; statistically significant increase, but not dose-related
inactive: End Point: IN VITRO CHROMOSOMAL ABERRATIONS, Test System: CHINESE HAMSTER OVARY CELLS, Metabolic Activation: NONE inactive; negative | Test System: AMES SALMONELLA TYPHIMURIUM, Strain/Indicator: TA98, Metabolic Activation: HAMSTER, LIVER, S-9, AROCLOR 1254 (10 OR 30%), Method: PREINCUBATION inactive; negative | [1] inactive; negative | Test System: AMES SALMONELLA TYPHIMURIUM, Strain/Indicator: TA98, Metabolic Activation: RAT, LIVER, S-9, ACETONITRILE (AUTOINDUCTION), Method: PREINCUBATION inactive; negative | Test System: AMES SALMONELLA TYPHIMURIUM, Strain/Indicator: TA98, Metabolic Activation: RAT, LIVER, S-9, AROCLOR 1254 (10 OR 30%), Method: PREINCUBATION inactive; negative | Test System: AMES SALMONELLA TYPHIMURIUM, Strain/Indicator: TA98, Metabolic Activation: RAT, LIVER, S-9, PHENOBARBITONE, Method: PREINCUBATION inactive; negative | Test System: AMES SALMONELLA TYPHIMURIUM, Strain/Indicator: TA100, Metabolic Activation: HAMSTER, LIVER, S-9, AROCLOR 1254 (10 OR 30%), Method: PREINCUBATION inactive; negative | [2] inactive; negative | Test System: AMES SALMONELLA TYPHIMURIUM, Strain/Indicator: TA100, Metabolic Activation: RAT, LIVER, S-9, ACETONITRILE (AUTOINDUCTION), Method: PREINCUBATION inactive; negative | Test System: AMES SALMONELLA TYPHIMURIUM, Strain/Indicator: TA100, Metabolic Activation: RAT, LIVER, S-9, AROCLOR 1254 (10 OR 30%), Method: PREINCUBATION inactive; negative | Test System: AMES SALMONELLA TYPHIMURIUM, Strain/Indicator: TA100, Metabolic Activation: RAT, LIVER, S-9, PHENOBARBITONE, Method: PREINCUBATION inactive; negative | Test System: AMES SALMONELLA TYPHIMURIUM, Strain/Indicator: TA1535, Metabolic Activation: HAMSTER, LIVER, S-9, AROCLOR 1254 (10 OR 30%), Method: PREINCUBATION inactive; negative | [3] inactive; negative | Test System: AMES SALMONELLA TYPHIMURIUM, Strain/Indicator: TA1535, Metabolic Activation: RAT, LIVER, S-9, AROCLOR 1254 (10 OR 30%), Method: PREINCUBATION inactive; negative | Test System: AMES SALMONELLA TYPHIMURIUM, Strain/Indicator: TA1537, Metabolic Activation: HAMSTER, S-9, AROCLOR 1254 (10 OR 30%), Method: PREINCUBATION inactive; negative | Test System: AMES SALMONELLA TYPHIMURIUM, Strain/Indicator: TA1537, Metabolic Activation: NONE, Method: PREINCUBATION inactive; negative | Test System: AMES SALMONELLA TYPHIMURIUM, Strain/Indicator: TA1537, Metabolic Activation: RAT, LIVER, S-9, AROCLOR 1254 (10 OR 30%), Method: PREINCUBATION inactive; negative
